Earlier results as cited in article PMC7288168, “Synthesis and Cytotoxic Activity of Chiral Sulfonamides Based on the 2-Azabicycloalkane Skeleton” (Molecules, 2020).

Test system: D425 cells
Parameters: method as in von Bueren et al. [31]
Conditions: known chemotherapeutics in D425 cells; ref von Bueren et al. [31]; cited from earlier work

Structure (SMILES): COc1cc([C@@H]2c3cc4c(cc3[C@@H](O[C@@H]3O[C@@H]5CO[C@@H](C)O[C@H]5[C@H](O)[C@H]3O)[C@H]3COC(=O)[C@H]23)OCO4)cc(OC)c1O [etoposide]
- LD50 D425: 8 µM
